From ChEMBL document CHEMBL5523744, “Recent Advances in Targeted Cancer Therapy: Are PDCs the Next Generation of ADCs?” (J Med Chem, 2024)

Tested on: DNA
Assay: Induction of DNA (unknown origin) minor groove alkylation
Format: nucleic-acid assay, Homo sapiens

IC50: 0.04 nM
SMILES: CC(C)(C)OC(=O)Nc1ccc(C(=O)Nc2ccc3cc(C(=O)N4C[C@@H](CCl)c5c4cc(O)c4ccccc54)[nH]c3c2)cc1
